The record followed here is patent publication US20260109712A1, “RIFAMYCINS FOR NONTUBERCULOUS MYCOBACTERIA” (priority 2022, published 2026).

Broadly, the MIC is the smallest concentration in the dilution series that meets the test's criterion for growth inhibition. The term Vd denotes a proportionality between amount in the body and measured concentration, not a real space. Read a high Vd as wide distribution into tissue.

Values after ≈ are worked out from the molar mass of the structure shown.

The test system of one series is M. abscessus ATCC 19977. As to the kind of experiment: MIC assay in 96-well plate format, wild-type strain. To be noted: for MICWT: Table 10; for MIC: Table 15, heterocyclic aromatic carbamates, read-out: WT Mab MIC. Format: cell-based, Mycobacterium abscessus. A digest of the protocol:
(§1)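 Two-fold, ten-point dilutions in 7H9 with 2% DMSO; mid-log culture diluted to OD600=0.1 (1×10^7 CFU/mL). Incubated 3 days at 37 °C, shaking 110 RPM; growth = Day 3 minus Day 0 OD600, expressed as percentage of drug-free growth and plotted against concentration. Two biological replicates.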

The test system of the next series is Δarr M. abscessus. Description: MIC assay, isogenic arr-deleted strain. Format: cell-based, Mycobacterium abscessus. The conditions noted are these: Table 10. An outline of the steps: as §1
Series [1] in a line: Mouse pharmacokinetics studies. The series is classed as in vivo, CD-1 mice. To be noted: for AUCp.o.: po; for C-25 deacylation i.v. / C-25 deacylation p.o.: AUC25-O-desacetyl RFB/AUCcompound × 100%, n.d. = undetectable. How it is done:
Blood was captured in CB300 blood collection tubes containing K2EDTA and stored on ice. Plasma was recovered after centrifugation and stored at −80° C. until analyzed by high pressure liquid chromatography coupled to tandem mass spectrometry (LC-MS/MS). Pharmacokinetic parameters were calculated using non-compartmental pharmacokinetic analysis. […] Extracts were vortexed for 5 minutes and centrifuged at 4000 RPM for 5 minutes. 75 μL of supernatant was transferred for LC-MS/MS analysis and diluted with 75 μL of Milli-Q deionized water. Rifabutin was purchased from Carbosynth. C25-desacetyl rifabutin and rifabutin-d7 were purchased from Toronto Research Chemical. Verapamil was purchased from Sigma-Aldrich. […] Multiple-reaction monitoring of parent/daughter transitions in electrospray positive-ionization mode was used to quantify all analytes. […] Data processing was performed using Analyst software (version 1.6.2; Applied Biosystems Sciex).

Series [2] in a line: Plasma protein binding assay (rapid equilibrium dialysis). The series is classed as in vitro ADME. On the procedure:
DMSO stocks were spiked into plasma to a concentration of 10,000 ng/mL. 200 μL of spiked plasma was pipetted into the sample chamber of the rapid equilibrium dialysis (RED) cartridge. 350 μL of PBS was added to the adjacent cartridge. The plate containing the RED was sealed and incubated at 37° C. on the thermomixer at 300 RPM for 4 h. After incubation, 50 μL aliquots of plasma were removed and added to 50 μL of blank plasma in a deep well plate (1:1). Similarly, 50 μL aliquots of PBS were removed and added to 50 μL of blank plasma. This created an identical matrix between buffer and non-buffer samples. Samples were processed and quantified as specified in the LC-MS/MS analytical method.
Background: In equilibrium dialysis only unbound substance equilibrates across the membrane.

Setting [3] is: p.o. doses of 10 mg/kg, Table 12.

As for `CO[C@H]1/C=C/O[C@@]2(C)Oc3c(C)c(O)c4c(c3C2=O)C2=NC3(CCN(CC(C)C)CC3)NC2=C(NC(=O)/C(C)=C/C=C/[C@H](C)[C@H](O)[C@@H](C)[C@@H](O)[C@@H](C)[C@H](OC(=O)Nc2ccccc2)[C@@H]1C)C4=O` [UMN14], in the series on M. abscessus ATCC 19977, the MICWT worked out at 0.027 µM and the MIC came to 0.027 µM (≈ 0.025 µg/mL). In the series on Δarr M. abscessus, the MICΔorr was 0.042 µM. In series [1] (Table 18), this compound gave a ƒAUC/MIC of 0.8. Besides, in series [1] (mouse, in vivo), the CL was 2.40 mL/min/kg, the F is listed as 38%, the Vd was determined as 1.93 L/kg and the AUCp.o. is 25625 ng·h/mL. This compound had a ƒu in series [2] of 0.1%. The plasma unbound fraction in series [2] (plasma) was determined as 0.08%.
`CO[C@H]1/C=C/O[C@@]2(C)Oc3c(C)c(O)c4c(c3C2=O)C2=NC3(CCN(CC(C)C)CC3)NC2=C(NC(=O)/C(C)=C/C=C/[C@H](C)[C@H](O)[C@@H](C)[C@@H](O)[C@@H](C)[C@H](OC(=O)N2CCN(CC(C)C)CC2)[C@@H]1C)C4=O` [UMN53] had an MICWT in the series on M. abscessus ATCC 19977 of 0.027 µM. The same compound had an MICΔorr in the series with Δarr M. abscessus of 0.02 µM. For the same compound, the plasma unbound fraction in series [2] (Table 10) turned out to be 0.20%.
The corresponding values for `CO[C@H]1/C=C/O[C@@]2(C)Oc3c(C)c(O)c4c(c3C2=O)C2=NC3(CCN(CC(C)C)CC3)NC2=C(NC(=O)/C(C)=C/C=C/[C@H](C)[C@H](O)[C@@H](C)[C@@H](O)[C@@H](C)[C@H](OC(=O)Nc2ccncn2)[C@@H]1C)C4=O` [UMN56] are 0.048 µM, 0.05 µM and 5.50%.
Consider `CO[C@H]1/C=C/O[C@@]2(C)Oc3c(C)c(O)c4c(c3C2=O)C2=NC3(CCN(CC(C)C)CC3)NC2=C(NC(=O)/C(C)=C/C=C/[C@H](C)[C@H](O)[C@@H](C)[C@@H](O)[C@@H](C)[C@H](OC(=O)N2CCN(c3ccccc3)CC2)[C@@H]1C)C4=O` [UMN58], for which the MICWT in the series with M. abscessus ATCC 19977 stood at 0.09 µM. Moreover, in the series on Δarr M. abscessus, the MICΔorr came out at 0.049 µM. The compound also came in with a plasma unbound fraction in series [2] (Table 10) of 0.13%.
For the compound `CO[C@H]1/C=C/O[C@@]2(C)Oc3c(C)c(O)c4c(c3C2=O)C2=NC3(CCN(CC(C)C)CC3)NC2=C(NC(=O)/C(C)=C/C=C/[C@H](C)[C@H](O)[C@@H](C)[C@@H](O)[C@@H](C)[C@H](OC(=O)N2CCCC2(C)C)[C@@H]1C)C4=O` [UMN61], in the series on M. abscessus ATCC 19977, the MICWT came to 0.08 µM. The same compound had an MICΔorr against Δarr M. abscessus of 0.052 µM. In series [2] (Table 10), the plasma unbound fraction is on record as 0.17%.
The compound `CO[C@H]1/C=C/O[C@@]2(C)Oc3c(C)c(O)c4c(c3C2=O)C2=NC3(CCN(CC(C)C)CC3)NC2=C(NC(=O)/C(C)=C/C=C/[C@H](C)[C@H](O)[C@@H](C)[C@@H](O)[C@@H](C)[C@H](OC(=O)N2CCN(C(C)(C)C)CC2)[C@@H]1C)C4=O` [UMN63] came in with an MICWT against M. abscessus ATCC 19977 of 0.077 µM. The MICΔorr with Δarr M. abscessus worked out at 0.043 µM. In series [2] (Table 10), this compound returned a plasma unbound fraction of 3.60%.
For `CO[C@H]1/C=C/O[C@@]2(C)Oc3c(C)c(O)c4c(c3C2=O)C2=NC3(CCN(CC(C)C)CC3)NC2=C(NC(=O)/C(C)=C/C=C/[C@H](C)[C@H](O)[C@@H](C)[C@@H](O)[C@@H](C)[C@H](OC(=O)Nc2cccnn2)[C@@H]1C)C4=O` [UMN64] the same measures were 0.032 µM, 0.034 µM and 4.15%.
The compound `CO[C@H]1/C=C/O[C@@]2(C)Oc3c(C)c(O)c4c(c3C2=O)C2=NC3(CCN(CC(C)C)CC3)NC2=C(NC(=O)/C(C)=C/C=C/[C@H](C)[C@H](O)[C@@H](C)[C@@H](O)[C@@H](C)[C@H](OC(=O)Nc2cccnc2)[C@@H]1C)C4=O` [UMN67] returned an MICWT against M. abscessus ATCC 19977 of 0.025 µM. Further, in the series with Δarr M. abscessus, the MICΔorr is 0.025 µM. The compound further registered a plasma unbound fraction in series [2] (Table 10) of 1.75%.
Consider `COC1C=COC2(C)Oc3c(C)c(O)c4c(c3C2=O)C2=NC3(CCN(CC(C)C)CC3)NC2=C(NC(=O)C(C)=CC=CC(C)C(O)C(C)C(O)C(C)C(OC(=O)N2CCOC(C)C2)C1C)C4=O` (stereo not shown) [UMN68], for which the MICWT against M. abscessus ATCC 19977 stood at 0.061 µM. In the series on Δarr M. abscessus, this compound returned an MICΔorr of 0.033 µM. Moreover, the plasma unbound fraction in series [2] (Table 10) is listed as 2.40%.
The compound `COC1C=COC2(C)Oc3c(C)c(O)c4c(c3C2=O)C2=NC3(CCN(CC(C)C)CC3)NC2=C(NC(=O)C(C)=CC=CC(C)C(O)C(C)C(O)C(C)C(OC(=O)N2CCOC(C)C2)C1C)C4=O` (stereo not shown) [UMN70] gave an MICWT in the series with M. abscessus ATCC 19977 of 0.08 µM. For the same compound, the MICΔorr against Δarr M. abscessus worked out at 0.026 µM. The compound further had a plasma unbound fraction in series [2] (Table 10) of 0.56%.
For `CO[C@H]1/C=C/O[C@@]2(C)Oc3c(C)c(O)c4c(c3C2=O)C2=NC3(CCN(CC(C)C)CC3)NC2=C(NC(=O)/C(C)=C/C=C/[C@H](C)[C@H](O)[C@@H](C)[C@@H](O)[C@@H](C)[C@H](OC(=O)N2CCOC(C)(C)C2)[C@@H]1C)C4=O` [UMN71] the same measures were 0.076 µM, 0.032 µM and 0.39%.
For `CCOC(=O)C1CN(C(=O)O[C@H]2[C@H](C)[C@H](O)[C@H](C)[C@@H](O)[C@@H](C)/C=C/C=C(\C)C(=O)NC3=C4NC5(CCN(CC(C)C)CC5)N=C4c4c(c(O)c(C)c5c4C(=O)[C@@](C)(O/C=C/[C@H](OC)[C@H]2C)O5)C3=O)CCO1` (stereo partly shown) [UMN72] the same measures were 0.082 µM, 0.040 µM and 0.75%.
On to `CCN1CCN(C(=O)O[C@H]2[C@H](C)[C@H](O)[C@H](C)[C@@H](O)[C@@H](C)/C=C/C=C(\C)C(=O)NC3=C4NC5(CCN(CC(C)C)CC5)N=C4c4c(c(O)c(C)c5c4C(=O)[C@@](C)(O/C=C/[C@H](OC)[C@H]2C)O5)C3=O)CC1` [UMN73], for which the MICWT against M. abscessus ATCC 19977 came to 0.1 µM. This compound also yielded an MICΔorr in the series on Δarr M. abscessus of 0.052 µM. The same compound came in with a plasma unbound fraction in series [2] (Table 10) of 0.65%.
For `CO[C@H]1/C=C/O[C@@]2(C)Oc3c(C)c(O)c4c(c3C2=O)C2=NC3(CCN(CC(C)C)CC3)NC2=C(NC(=O)/C(C)=C/C=C/[C@H](C)[C@H](O)[C@@H](C)[C@@H](O)[C@@H](C)[C@H](OC(=O)NCc2cn(Cc3ccccc3)nn2)[C@@H]1C)C4=O` [UMN85] the same measures were 0.027 µM, 0.025 µM and 0.30%.
Turning to `CO[C@H]1/C=C/O[C@@]2(C)Oc3c(C)c(O)c4c(c3C2=O)C2=NC3(CCN(CC(C)C)CC3)NC2=C(NC(=O)/C(C)=C/C=C/[C@H](C)[C@H](O)[C@@H](C)[C@@H](O)[C@@H](C)[C@H](OC(=O)Nc2ccncc2)[C@@H]1C)C4=O` [UMN105], the MIC in the series with M. abscessus ATCC 19977 is 0.025 µM (≈ 0.0231 µg/mL). In series [1] (mouse, in vivo), this compound came in with a CL of 7.57 mL/min/kg, an F of 63%, a Vd of 3.78 L/kg and a ƒAUC/MIC of 9.4. In series [1] (mouse, in vivo), this compound gave an AUCp.o. of 14210 ng·h/mL. In series [2], this compound had a ƒu of 2.0%.
As to `CO[C@H]1/C=C/O[C@@]2(C)Oc3c(C)c(O)c4c(c3C2=O)C2=NC3(CCN(CC(C)C)CC3)NC2=C(NC(=O)/C(C)=C/C=C/[C@H](C)[C@H](O)[C@@H](C)[C@@H](O)[C@@H](C)[C@H](OC(=O)c2ccccc2)[C@@H]1C)C4=O` [drawing 217], in series [1], the C-25 deacylation i.v. amounted to 0.03% and the C-25 deacylation p.o. is reported as 0.008%. In series [1] (Table 12), this compound gave a CL of 2.4 mL/min/kg, a Vd of 2.9 L/kg and a t1/2 of 13.8 h. Besides, the ƒAUC/MIC in series [1] (setting [3]) is 0.08. This compound also came in with a plasma unbound fraction in series [2] (Table 12) of 0.03%.
As to `CO[C@H]1/C=C/O[C@@]2(C)Oc3c(C)c(O)c4c(c3C2=O)C2=NC3(CCN(CC(C)C)CC3)NC2=C(NC(=O)/C(C)=C/C=C/[C@H](C)[C@H](O)[C@@H](C)[C@@H](O)[C@@H](C)[C@H](OC(=O)Nc2ccccc2)[C@@H]1C)C4=O` [drawing 220], in series [1], the C-25 deacylation i.v. is 0.08% and the C-25 deacylation p.o. is given as 0.001%. In series [1] (Table 12), this compound gave a CL of 2.4 mL/min/kg, a Vd of 1.9 L/kg and a t1/2 of 9.3 h. The ƒAUC/MIC in series [1] (setting [3]) is 0.43. Moreover, the plasma unbound fraction in series [2] (Table 12) is recorded as 0.0008%.
For the compound `CO[C@H]1/C=C/O[C@@]2(C)Oc3c(C)c(O)c4c(c3C2=O)C2=NC3(CCN(CC(C)C)CC3)NC2=C(NC(=O)/C(C)=C/C=C/[C@H](C)[C@H](O)[C@@H](C)[C@@H](O)[C@@H](C)[C@H](OC(=O)c2cccnc2)[C@@H]1C)C4=O` [drawing 222], in series [1] (Table 12), the CL stood at 3.0 mL/min/kg and the Vd is on record as 1.6 L/kg. The compound further showed a ƒAUC/MIC in series [1] (setting [3]) of 28.2.
